Consider five molecules from patent publication US20080085917A1, “7-(2-(4-(3-TRIFLUOROMETHYL-PHENYL)-1,2,3,6-TETRAHYDROPYRID-1-YL)ETHYL)ISOQUINOLINE BESYLATE SALT, PREPARATION AND THERAPEUTIC USE THEREOF” (sanofi-aventis, priority 2005, published 2008).

What all share (format): physicochemical
A short description of data set [1]: Water content by thermogravimetric analysis (TGA). The note with it: for Loss in weight / Nature of the solvent: TGA; for Loss in weight: from 25° C., 10° C./min, nitrogen purge; for Nature of the solvent: solvent lost; for Hydration state: from TGA curve. The procedure:
The water content of the five above salts was studied by thermogravimetric analysis (TGA).
The TGA tests are carried out in a TA8000 device equipped with a TGA850 module. The temperature calibrations are carried out conventionally using the melting of indium.
The experimental parameters employed were:
Final temperature: 250° C. for the dihydrochloride, 300° C. for the fumarate, 200° C. or 250° C. for the dihydrogensulfate, 250° C. or 300° C. for the dibesylate and the besylate.
The system is purged using nitrogen at a flow rate of 70 ml/min.
The pans used were 70 μl silica pans.

Data set [2] is described as follows: Chemical stability of salts exposed to heat and moisture, measured by HPLC. The note with it: for Purity after 14 days at 80° C./80% RH: 14 days at 80° C. and 80% relative humidity; for Initial purity: before exposure (baseline of stability study). The procedure:
The chemical stability of the compound of formula (I) in the dihydrochloride, dihydrogensulfate, fumarate, dibenzenesulfonate and monobenzenesulfonate forms was studied.
Each of the five above salts is exposed to heat, to moisture and to light under the conditions below: • 14 days at a temperature of 80° C., • 14 days at a temperature of 80° C. and a relative humidity (RH) level of 80%, • exposure to light of 400 W.Hrs.m^−2.

Data set [3] can be described thus: Water sorption isotherms (DVS). The note with it: 25° C. On the procedure:
The DVS tests are carried out using a DVS-1 system. From 20 to 32 mg of product are used per analysis and the temperature is maintained at 25° C. plus or minus 0.2° C. Nitrogen is used as carrier gas at a flow rate of 100 ml/min in the sample chamber.

On to Fumarate, for which, in data set [1], the Loss in weight is 0.45 % weight/weight and the “Nature of the solvent” value is “Solvent + water”. In data set [2], the “Purity after 14 days at 80° C.” value was 96.7%, the “Purity after 14 days at 80° C./80% RH” value is 32.4% and the Initial purity stood at 97.9%. Moreover, the “Hygroscopicity (sorption isotherms), in words” value (shortened to “Hygroscopicity”) in data set [3] is “weakly hygroscopic”.

Regarding `Cl.Cl.FC(F)(F)c1cccc(C2=CCN(CCc3ccc4ccncc4c3)CC2)c1` [Dihydrochloride], in data set [1], the Loss in weight is on record as 11.0 % weight/weight, the “Nature of the solvent” value was “Water” and the Hydration state entry is reported as “three water molecules per mole of anhydrous salt”. In data set [2], the “Purity after 14 days at 80° C.” value was determined as 95.6%, the “Purity after 14 days at 80° C./80% RH” value was 92.9% and the Initial purity came out at 97.0%. Further, the Hysteresis in sorption/desorption entry in data set [3] is “weak hysteresis”. In addition, the “Water acquired during the sorption cycle” value in data set [3] (between 30 and 80% relative humidity) is on record as 1.9 % weight/weight.

As for `FC(F)(F)c1cccc(C2=CCN(CCc3ccc4ccncc4c3)CC2)c1.O=S(=O)(O)c1ccccc1` [Besylate, 7-(2-(4-(3-(trifluoromethyl)phenyl)-1,2,3,6-tetrahydropyrid-1-yl)ethyl)isoquinoline besylate], in data set [1], the Loss in weight is reported as 0.11 % weight/weight, the “Nature of the solvent” value was “Water” and the Hydration state entry is listed as “not hydrated”. Besides, in data set [2], the “Purity after 14 days at 80° C.” value was found to be 97.9%, the “Purity after 14 days at 80° C./80% RH” value was determined as 96.5% and the Initial purity came to 98.2%. In addition, in data set [3], the “Hygroscopicity” value is on record as “least hygroscopic of all the salts tested” and the Hysteresis in sorption/desorption entry is “No hysteresis”.

`FC(F)(F)c1cccc(C2=CCN(CCc3ccc4ccncc4c3)CC2)c1.O=S(=O)(O)c1ccccc1.O=S(=O)(O)c1ccccc1` [Dibesylate]: in data set [1], the Loss in weight was 0.72 % weight/weight and the “Nature of the solvent” value is listed as “Water”. Besides, in data set [2], the “Purity after 14 days at 80° C.” value came to 97.5%, the “Purity after 14 days at 80° C./80% RH” value was 96.2% and the Initial purity is given as 97.5%. Also, in data set [3], the “Hygroscopicity” value is listed as “significant acquisition of water” and the Hysteresis in sorption/desorption entry is “hystereses observed during the desorption”.

Consider `FC(F)(F)c1cccc(C2=CCN(CCc3ccc4ccncc4c3)CC2)c1.O=S(=O)(O)O.O=S(=O)(O)O` [Dihydrogensulfate], for which, in data set [1], the Loss in weight was found to be 2.06 % weight/weight and the “Nature of the solvent” value is recorded as “Solvent + water”. Moreover, in data set [2], the “Purity after 14 days at 80° C.” value turned out to be 91.9%, the “Purity after 14 days at 80° C./80% RH” value is 88.5% and the Initial purity is listed as 93.3%. Also, in data set [3], the “Hygroscopicity” value is on record as “significant acquisition of water” and the Hysteresis in sorption/desorption entry is given as “hystereses observed during the desorption”.
